# Experimental data reported in patent publication US5935990A, “Substituted pyrrolyl compounds for the treatment of inflammation” (G.D. Searle & Co., priority 1997, dated 1999).
# pIC50: −log10 of the molar value.
# System: rat paw edema
# Assay: Rat Carrageenan Foot Pad Edema Test
# Type: in vivo, rat (Male Sprague-Dawley)
# Details: oral, 3 h after carrageenan injection
# Protocol: The carrageenan foot edema test was performed with materials, reagents and procedures essentially as described by Winter, et al., (Proc. Soc. Exp. Biol. Med., 111, 544 (1962)). Male Sprague-Dawley rats were selected in each group so that the average body weight was as close as possible. Rats were fasted with free access to water for over sixteen hours prior to the test. The rats were dosed orally (1 mL) with compounds suspended in vehicle containing 0.5% methylcellulose and 0.025% surfactant, or with vehicle alone. One hour later a subplantar injection of 0.1 mL of 1% solution of carrageenan/sterile 0.9% saline was administered and the volume of the injected foot was measured with a displacement plethysmometer connected to a pressure transducer with a digital indicator. Three hours after the injection of the carrageenan, the volume of the foot was again measured. The average foot swelling in a group of drug-treated animals was compared with that of a group of placebo-treated animals and the percentage inhibition of edema was determined (Otterness and Bliven, Laboratory Models for Testing NSAIDs, in Non-steroidal Anti-Inflammatory Drugs, (J. Lombardino, ed. 1985)).
row,SMILES,RAT PAW EDEMA % Inhibition @ 30mg/kg body weight [%]
1,"CS(=O)(=O)c1ccc(-n2cccc2-c2ccc(F)cc2)cc1 [Example 8, 2-(4-Fluorophenyl)--1-[4-(methylsulfonyl)phenyl]-1H-pyrrole]",56

# System: not listed separately
# Assay: Analgesia (Table I)
# Type: in vivo
# Details: not given
row,SMILES,ANALGESIA % Inhibition @ 30mg/kg body weight [%]
1,"CS(=O)(=O)c1ccc(-n2cccc2-c2ccc(F)cc2)cc1 [Example 8, 2-(4-Fluorophenyl)--1-[4-(methylsulfonyl)phenyl]-1H-pyrrole]",47

# System: COX-1
# Assay: Assay for COX-1 activity in vitro (PGE2 formed, ELISA)
# Type: biochemical, human or murine
# Details: recombinant COX-1 from SF9 insect cells, arachidonic acid 10 μM, pH 8.0, 10-20 min pre-incubation
# Protocol: The COX-2 inhibition activity of the compounds of this invention illustrated in the Examples was determined by the following methods.
# a. Preparation of recombinant COX baculoviruses
# Recombinant baculoviruses were isolated by transfecting 4 μg of baculovirus transfer vector DNA into SF9 insect cells (2×10^8) along with 200 ng of linearized baculovirus plasmid DNA by the calcium phosphate method. See M. D. Summers and G. E. Smith, A Manual of Methods for Baculovirus Vectors and Insect Cell Culture Procedures, Texas Agric. Exp. Station Bull. […] Recombinant viruses were purified by three rounds of plaque purification and high titer (10^7-10^8 pfu/mL) stocks of virus were prepared. For large scale production, SF9 insect cells were infected in 10 liter fermentors (0.5×10^6 /mL) with the recombinant baculovirus stock such that the multiplicity of infection was 0.1. […] The homogenate was centrifuged at 10,000×G for 30 minutes, and the resultant supernatant was stored at -80° C. before being assayed for COX activity.
# COX activity was assayed as PGE2 formed/pg protein/time using an ELISA to detect the prostaglandin released. CHAPS-solubilized insect cell membranes containing the appropriate COX enzyme were incubated in a potassium phosphate buffer (50 mM, pH 8.0) containing epinephrine, phenol, and heme with the addition of arachidonic acid (10 μM). […] The PGE2 formed was measured by standard ELISA technology (Cayman Chemical).
row,SMILES,pIC50
1,"Cc1ccc(-c2ccc(S(C)(=O)=O)cc2)n1-c1ccc(F)cc1 [Example 1, 1-(4-Fluorophenyl)-2-methyl-5-[4-(methylsulfonyl)phenyl]-1H-pyrrole]",< 4.00
2,"Cc1ccc(-c2ccc(S(C)(=O)=O)cc2)n1C1CCCCC1 [Example 7, 1-Cyclohexyl-2-methyl-5-[4-(methylsulfonyl)phenyl]-1H-pyrrole]",4.20
3,"NS(=O)(=O)c1ccc(-n2cccc2-c2ccc(F)cc2)cc1 [Example 9, 4-[2-(4-Fluorophenyl)-1H-pyrrol-1-yl]benzenesulfonamide]",4.98
4,"CS(=O)(=O)c1ccc(-c2cccn2-c2ccc(F)cc2)cc1 [Example 10, 1-(4-Fluorophenyl)-2-[4-(methylsulfonyl)phenyl]-1H-pyrrole]",< 4.00
5,"Cc1c(S(=O)(=O)C(F)(F)F)cc(-c2ccc(S(C)(=O)=O)cc2)n1-c1ccc(F)cc1 [Example 16, 1-(4-Fluorophenyl)-2-methyl-5-[4-(methylsulfonyl)phenyl]-3-[(trifluoromethyl)sulfonyl]-1H-pyrrole]",< 4.00
6,"Cc1c(COc2cccc(Cl)c2)cc(-c2ccc(S(C)(=O)=O)cc2)n1-c1ccc(F)cc1 [Example 25, 3-[(3-Chlorophenoxy)methyl]-1-(4-fluorophenyl)-2-methyl-5-[4-(methylsulfonyl)phenyl]-1H-pyrrole]",< 4.00
7,"Cc1c(COc2ccc(Cl)cc2)cc(-c2ccc(S(C)(=O)=O)cc2)n1-c1ccc(F)cc1 [Example 26, 3-[(4-Chlorophenoxy)methyl]-1-(4-fluorophenyl)-2-methyl-5-[4-(methylsulfonyl)phenyl]-1H-pyrrole]",< 4.00
